Values of other authors, collected in patent US7135436B2, “Solid algicide, preparation and usage in recirculating water” (J.F. Daley International, Ltd., priority 2003, dated 2006).

Settings: at 20° C.; 'believed to be'

CCNc1nc(Cl)nc(NC(C)(C)C)n1 [terbuthylazine, 2-(tert-butylamino)-4-chloro-6-(ethylamino)-s-triazine]
solubility of terbuthylazine in water: about 5 ppm
